This is an account of results in patent US20220071971A1, “MACROCYCLIC COMPOUNDS AND THEIR USE IN THE TREATMENT OF DISEASE” (NOVARTIS AG, priority 2018, published 2022).

What is called EC50 is the concentration that produces a half-maximal response.

Data set [1] deals with T1, delF508-CFTR (Homo sapiens, UniProt P13569, DEL508-508).
T1 construct: expressed in transfected cells
Nature of the data set: Measurement of delF508-CFTR-HRP surface expression in CFBE41o- cells. Format: cell-based. The note with it: for Emax: CFBE41o-, efficacy relative to reference compound 3-(6-(1-(2,2-difluorobenzo[d][1,3]dioxol-5-yl)cyclopropane-1-carboxamido)-3-methylpyridin-2-yl)benzoic acid, read-out: DelF508-CFTR-HRP Amax %; for EC50: HRP-tagged delF508-CFTR surface expression, CFBE41o- cells, 24 h with compound, 10-point curve, highest concentration 10 μM. The procedure, abridged:
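CFBE41o- cells stably expressing delF508-CFTR with HRP in the fourth extracellular loop, induced 48 h with 500 ng/mL doxycycline, then exposed to compound (10-point, 3-fold, top 10 μM, ≤0.5% DMSO) for 24 h at 37° C. Surface HRP read by luminescence with cell-impermeant substrate; EC50 by logistic fit, triplicates, efficacy relative to reference corrector.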

Data set [2] has as its target T1, delF508-CFTR. Nature of the data set: Measurement of delF508-CFTR functional activity in primary human bronchial epithelial cells (HBECs) using MTECC-24 assay. Type of data set: cell-based. The note with it: for EC50: primary human delF508-CFTR bronchial epithelial cells, 24 hr compound treatment, equivalent short circuit current, forskolin and potentiator, mean of at least two replicates, read-out: MTECC24 CFHBEC EC50; for MTECC24 CFHBEC Amax %: test compound (24 h) with potentiator (S)-3-amino-6-methoxy-N-(3,3,3-trifluoro-2-hydroxy-2-methylpropyl)-5-(trifluoromethyl)picolinamide, relative to 2 μM 3-(6-(1-(2,2-difluorobenzo[d][1,3]dioxol-5-yl)cyclopropane-1-carboxamido)-3-methylpyridin-2-yl)benzoic acid plus 0.5 μM N-(2,4-di-tert-butyl-5-hydroxyphenyl)-4-oxo-1,4-dihydroquinoline-3-carboxamide. From the text:
Measurement of delF508-CFTR Functional Activity in Primary Human Bronchial Epithelial Cells (HBECs) Using Multi-Transepithelial Clamp Circuit (MTECC-24) Assay
This assay measures the functional activity of the CFTR channel (Chloride ion transport) in patient derived primary human bronchial epithilial cells with forskolin activation and in the presence of the CFTR corrector/potentiator combination.
Primary human delF508-CFTR bronchial epithelial cells were and cultured according to previously established methods (Neuberger, T. et, al., Methods in Molecular Biology, 2011, 741, pp 39-54). Briefly, before thawing the HBEC cells, T25 flasks were coated with 2 mL of 3T3 conditioned media (MTI-GlobalStem, Cat #GSM9100) for at least 12 hours in 37° C. CO2 incubator. 1.7×10^5 cells were seeded into one T25 flask with 5 mL of HBE growth media (BEBM with supplements (Lonza, Cat #CC-3170) with 10 nM of retinoic acid (Sigma, Cat #R-2625) and 1% of PSA (Hyclone, Cat #SV30079.01). Media was changed every day till the cells were 100% confluent. Cells were seeded into T75 flasks (pre-coated with 5 mL of 3T3 conditioned media for more than 12 hrs) at 4.95×10^5 cells/T75 flask in 15 mL of HBE growth media. Flasks were fed everyday with fresh HBE growth media until the cells were confluent. 24-well transwell plates (Corning, Cat #3378) were coated with 3T3 conditioned media (70 μL on top of the filter, 350 μL to the bottom of the well) overnight in the 37° C. CO2 incubator. Cells were seeded in the pre-coated 24-well transwell plates at 1.7×10^5 cell/well with 700 μL of growth media at the bottom of the well and 200 μL of growth media at the top of the filter. After 24 hrs, cells were switched into HBE differentiation media ((DMEM/F12 (Gibco, Cat #11330-032) supplement with 2% Ultroser G (Pall, Cat #15950-017), 2% of Fetal Clone II (Hyclone, Cat #SH30066.03), 0.25% Bovine Brain Extract (Lonza, Cat #CC-4098), 1% of PSA, 2.5 μg/mL of Insulin (Sigma, Cat #19278), 20 nM of Hydrocortisone (Sigma, Cat #H0888), 500 nM of Triiodothyronine (Sigma, Cat #T6397), 2.5 μg/mL of Transferrin (Sigma, Cat #T8158), 250 nM of Ethanolamine (Sigma, Cat #E0135), 1.5 μM of Epinephrine (Sigma, Cat #E4250), 250 nM of Phosphoethanolamine (Sigma, Cat #P0503), 10 nM of retinoic acid)) with 200 μL on top of the filter (apical side) and 700 μL at the bottom of the well (basolateral side). Cells were fed every other day with the differentiation media. After 4 days, cells were exposed to air/liquid interface. Then cells were fed every other day for 4 weeks before fully differentiated.
Cells were washed with 3 mM DTT in PBS at 70 ul/well for 30 min at 37° C. 6 days before the assay. 3 days before the assay, cells were washed again with PBS at 70 ul/well for 30 min at 37° C. Then cells were treated with compound for 24 hrs before the assay.
Following 24 hr treatment with compound, cells were transferred into plates containing 750 ul of assay media on basolateral side and 250 ul on apical side (Assay medium: F-12 Coon's modified, 20 mM HEPES pH7.4 with TRIS Base, No FCS or bicarbonate). The plates wee then transferred to the heated plate compartments (basolateral buffer temperature ˜36.5° C. on the heating block) of the TECC24 system for 45 mins prior to measurements.
Modulators were added sequentially as follows while the TECC24 instrument recorded the equivalent short circuit current (Ieq):
Prior to dilution into assay medium the stocks were as follows: Benzamil stock: 10 mM in DMSO
Forskolin Stock: 50 mM in DMSO
N-(2,4-di-tert-butyl-5-hydroxyphenyl)-1,4-dihydro-4-oxoquinoline-3-carboxamide: 50 mM in DMSO (S)-3-amino-6-methoxy-N-(3,3,3-trifluoro-2-hydroxy-2-methylpropyl)-5-(trifluoromethyl)picolinamide: 50 mM stock 100% DMSO Bumetanide stock: 20 mM in EtOH
The data was normalized using the median signal from wells treated with 0.1% DMSO as a baseline. Curve fitting and EC50 calculations were performed using the following equation: […]

Read-outs that look alike come from different tables or passages of the source.

T1 sequence (P13569 with tags, fused parts or gaps DEL508-508): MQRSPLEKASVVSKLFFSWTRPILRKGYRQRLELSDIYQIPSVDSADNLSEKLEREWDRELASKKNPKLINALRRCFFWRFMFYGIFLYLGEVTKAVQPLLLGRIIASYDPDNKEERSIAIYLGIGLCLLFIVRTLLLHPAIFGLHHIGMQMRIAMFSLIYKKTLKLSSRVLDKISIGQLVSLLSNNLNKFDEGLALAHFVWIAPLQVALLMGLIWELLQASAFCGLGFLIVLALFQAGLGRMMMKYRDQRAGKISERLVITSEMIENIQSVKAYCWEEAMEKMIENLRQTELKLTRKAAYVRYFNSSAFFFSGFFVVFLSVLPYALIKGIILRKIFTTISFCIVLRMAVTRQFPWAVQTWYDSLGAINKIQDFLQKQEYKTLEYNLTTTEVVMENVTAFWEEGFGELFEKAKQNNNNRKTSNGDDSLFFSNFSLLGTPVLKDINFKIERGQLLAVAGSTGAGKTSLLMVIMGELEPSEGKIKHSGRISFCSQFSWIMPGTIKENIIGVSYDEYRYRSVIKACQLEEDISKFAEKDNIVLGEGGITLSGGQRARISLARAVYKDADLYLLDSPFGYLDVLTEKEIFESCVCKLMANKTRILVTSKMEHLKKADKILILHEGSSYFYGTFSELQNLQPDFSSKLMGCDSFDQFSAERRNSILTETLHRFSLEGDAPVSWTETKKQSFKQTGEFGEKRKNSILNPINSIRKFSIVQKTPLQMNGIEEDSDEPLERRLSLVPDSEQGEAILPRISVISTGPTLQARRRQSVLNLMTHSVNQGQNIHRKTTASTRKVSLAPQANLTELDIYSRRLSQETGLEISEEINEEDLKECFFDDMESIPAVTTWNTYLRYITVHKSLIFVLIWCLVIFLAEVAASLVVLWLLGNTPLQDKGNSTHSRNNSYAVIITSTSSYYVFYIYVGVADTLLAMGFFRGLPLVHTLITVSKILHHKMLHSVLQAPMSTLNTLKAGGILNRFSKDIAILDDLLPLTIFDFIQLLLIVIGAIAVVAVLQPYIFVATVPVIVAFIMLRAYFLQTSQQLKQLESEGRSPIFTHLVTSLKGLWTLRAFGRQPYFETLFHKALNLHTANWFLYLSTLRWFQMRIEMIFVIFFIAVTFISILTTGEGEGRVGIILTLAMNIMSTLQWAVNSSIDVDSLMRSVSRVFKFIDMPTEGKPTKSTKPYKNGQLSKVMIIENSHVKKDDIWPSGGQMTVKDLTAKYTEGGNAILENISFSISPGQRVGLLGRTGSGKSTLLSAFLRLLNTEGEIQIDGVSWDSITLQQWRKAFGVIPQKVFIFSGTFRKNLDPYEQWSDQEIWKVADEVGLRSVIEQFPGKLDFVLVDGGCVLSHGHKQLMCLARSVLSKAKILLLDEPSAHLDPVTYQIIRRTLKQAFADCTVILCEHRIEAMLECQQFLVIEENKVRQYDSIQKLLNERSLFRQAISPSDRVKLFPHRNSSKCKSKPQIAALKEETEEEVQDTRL

In turn, `O=S1(=O)Nc2ccc(C(F)(F)F)c(n2)-c2ccccc2C=CCCCCN(CCCCCO)c2cccc1n2` returned a ring closure, isolated yield (from C=CCCCCN(CCCCCO)c1cccc(S(=O)(=O)Nc2ccc(C(F)(F)F)c(-c3ccccc3C=C)n2)n1, rcm bond, 17-membered ring, Grubbs II (20 mol%), DCM (or DCE), 1.85 mM, 55.0 °C) of 94%.

On to `O=C(O)CCCN1CCCCc2ccccc2-c2nc(ccc2C(F)(F)F)NS(=O)(=O)c2cccc1n2` [Compound 90, 4-(4,4-dioxido-2^3-(trifluoromethyl)-4-thia-3,6-diaza-2,5(2,6)-dipyridina-1(1,2)-benzenacyclodecaphane-6-yl)butanoic acid], for which, on delF508-CFTR [1], the Emax was 674% and the EC50 was determined as 919 nM. Besides, at delF508-CFTR [2], the EC50 worked out at 4.6 nM and the “MTECC24 CFHBEC Amax %” value was determined as 123.2%.

As for `O=C(O)CCN1CCCCCc2ccccc2-c2nc(ccc2Cl)NS(=O)(=O)c2cccc1n2` [Compound 89, 3-(2^3-chloro-4,4-dioxido-4-thia-3,6-diaza-2,5(2,6)-dipyridina-1(1,2)-benzenacycloundecaphane-6-yl)propanoic acid], on delF508-CFTR [1], the Emax came to 858% and the EC50 came to 1180 nM. Besides, at delF508-CFTR [2], the concentration for a half-maximal effect (EC50) came out at 30.9 nM and the “MTECC24 CFHBEC Amax %” value was 56.7%.

For the compound `O=S1(=O)Nc2ccc(C(F)(F)F)c(n2)-c2ccccc2C=CCCN(CCO)c2cccc1n2`, the ring closure, isolated yield (from C=CCCN(CCO)c1cccc(S(=O)(=O)Nc2ccc(C(F)(F)F)c(-c3ccccc3C=C)n2)n1, rcm bond, 15-membered ring, Grubbs II (two portions), DCM, 2.1 mM, 45.0 °C) came out at 91%.

Under “from C=CCCC(CCCO)Oc1cccc(S(=O)(=O)Nc2ccc(C(F)(F)F)c(-c3ccccc3C=C)n2)n1, rcm bond, 16-membered ring, Grubbs II (10 mol%), DCM, 3.68 mM, 45.0 °C”, `O=S1(=O)Nc2ccc(C(F)(F)F)c(n2)-c2ccccc2C=CCCC(CCCO)Oc2cccc1n2` (stereo not drawn) came in with a ring closure, isolated yield of 95%.

In turn, “tert-butyl 4-(4,4-dioxido-2^3-(trifluoromethyl)-10-oxa-4-thia-3,6-diaza-2,5(2,6)-dipyridina-1(1,2)-benzenacycloundecaphane-6-yl)butanoate” showed a ring closure, isolated yield (snar bond, 16-membered ring, DIEA, NMP, 40.0 mM, 135.0 °C) of 75%.
